The values below come from patent publication US20220089638A1, “DITHIOCARBAMATE STAPLED PEPTIDES AND METHODS OF MAKING AND USE THEREOF” (UNIVERSITY OF MARYLAND, BALTIMORE, priority 2019, published 2022).

Data set [1] deals with HCT116 p53^+/+. The data set is described as follows: Cell viability assay (CCK8), HCT116 p53+/+. Type of data set: cell-based, human. The conditions noted are these: concentrations of up to 50 μM.
Procedure: (§2) Cell Viability Assay. […] The absorbance at 450 nm was then measured followed by the addition of CCK8 kit, and percent cell viability was calculated on the ratio of the A450 of sample wells versus reference wells.
Data set [2] relates to HCT116 p53^−/−. The data set is described as follows: Cell viability assay (CCK8), HCT116 p53-/-. It is filed as cell-based, human.
Procedure: as §2
Data set [3] in a line: Circular dichroism spectroscopy, percent α-helix. It is filed as physicochemical. To be noted: CD spectroscopy. An excerpt:
Circular Dichroism (CD) Spectroscopy.
(In general: Circular dichroism is widely used to follow secondary structure.)

The test system of data set [4] is HCT116 p53^+/+ cells. The experiment in a line: Cellular uptake by confocal microscopy. It is filed as cell-based, human. To be noted: FITC-labeled peptide, 20 μM, 4 h. How it is done: Cellular uptake of ^DTCPMI. […] Cells were then incubated with 20 μM FITC-^DTCPMI Ctrl. or FITC-^DTCPMI for 4 h. Cells were washed with Dulbecco's phosphate buffered saline, fixed with 4% (wt/vol) paraformaldehyde, finally incubated by DAPI to stain the cell nucleus. Imaged using an LSM 510 Zeiss Axiovert 200M (v4.0) confocal microscope. Images were analyzed using an LSM image browser.

Data set [5] can be described thus: Comparison of solubility between DTC and hydrocarbon link (OD 600 nm in PBS). To be noted: PBS buffer, 2-fold serial dilution from 20 mg/ml, OD at 600 nm. Type of data set: physicochemical. The procedure:
Comparison of Solubility between DTC and Hydrocarbon link. […] OD values were measured at 600 nm on a Biotech Synergy 4 plate reader. PBS was set as blank control.

For data set [6], the system named is p53, MDM2 and p21 in HCT116 p53^+/+ cells. The experiment in a line: Western blot analysis of MDM2, p21 and p53 expression. Type of data set: cell-based, human. The conditions noted are these: 8 h after treatment, 10, 20, 30 μM. The procedure:
Western Blot Analysis. […] The cells were lysed (20 mM Tris-HCl pH 8.0, 0.8% SDS, 1 mM PMSF, 1 U mL^−1 benzonase nuclease) and the crude lysates were clarified by brief centrifugation and total protein concentration was determined by using the Pierce BCA protein assay. Aliquots containing 5 μg of total protein were run on 4-12% Bis-Tris polyacrylamide gels (Invitrogen).

Data set [7] deals with HCT116 p53^+/+ cells. The data set is described as follows: Cell apoptosis assay (annexin V-FITC/PI flow cytometry), HCT116 p53+/+. The conditions noted are these: 10, 20, or 30 μM. Type of data set: cell-based, human. How it is done:
(§1) Cell Apoptosis Assay. […] No treatment controls were established. Culture medium that may contain detached cells was collected, and attached cells were trypsinized. After centrifugation and removal of the supernatants, cells were resuspended in 300 μL of 1×binding buffer which was then added to 5 μL of annexin V-FITC and incubated at room temperature for 15 min. After addition of 10 μL of PI, the cells were incubated at room temperature for another 10 min in the dark. The stained cells were analyzed by a flow cytometer (BD-FACSVerse).
On the technique in general: In flow cytometry, cells or beads pass a laser one at a time.

For data set [8], the system named is HCT116 p53^−/− cells. The data set is described as follows: Cell apoptosis assay (annexin V-FITC/PI flow cytometry), HCT116 p53-/-. Type of data set: cell-based, human. The conditions noted are these: identical treatment conditions, 10, 20, or 30 μM. The procedure: as §1

Where a SMILES comes first, the peptide text is derived from it. Bridges are numbered along the chain shown (N, C = ends). [ ]: non-standard residue; d: D form. S5 = C=CCCC[C@](C)(N)C(=O)O Bounds are passed on as bounds.

Take `CC(=O)N[C@H](C(=O)N[C@@H](CO)C(=O)N[C@@H](Cc1ccccc1)C(=O)N[C@@H](CCCCN)C(=O)N[C@@H](CCC(N)=O)C(=O)N[C@@H](Cc1ccc(O)cc1)C(=O)N[C@@H](Cc1c[nH]c2ccccc12)C(=O)N[C@@H](CS)C(=O)N[C@@H](CC(C)C)C(=O)N[C@@H](CC(C)C)C(=O)N[C@@H](CO)C(=O)N[C@@H](CCCNC(=N)N)C(N)=O)[C@@H](C)O` [^DTCPMI Ctrl., reference compound]: the “anti-proliferative activity against HCT116 p53+/+” value in data set [1] was “no anti-proliferative activity”. Also, in data set [2] (concentrations of up to 50 μM), the “anti-proliferative activity against HCT116 p53-/-” value is reported as “no anti-proliferative activity”. Besides, the “α-helix (%)” value in data set [3] (Table 7) came out at 16.6%. Further, the “intracellular localization / cellular uptake (confocal microscopy)” value in data set [4] was “diffused intracellular localization, demonstrating efficient cellular uptake”.
As usually defined, the solubility is the dissolved amount per volume that the medium holds. Turning to `CC(=O)N[C@H](C(=O)N[C@@H](CO)C(=O)N[C@@H](Cc1ccccc1)C(=O)N[C@@]1(C)CCCC=CCCC[C@@](C)(C(=O)N[C@@H](CC(C)C)C(=O)N[C@@H](CC(C)C)C(=O)N[C@@H](CO)C(=O)N[C@@H](CCCNC(=N)N)C(N)=O)NC(=O)[C@H](Cc2c[nH]c3ccccc23)NC(=O)[C@H](Cc2ccc(O)cc2)NC(=O)[C@H](CCC(N)=O)NC1=O)[C@@H](C)O` [^HCPMI] (Ac-TSF[S5]QYW[S5]LLSR-NH2; staple 4-8), the solubility in data set [5] was at least 300 µg/mL.
Consider `CC(=O)N[C@H](C(=O)N[C@@H](CO)C(=O)N[C@@H](Cc1ccccc1)C(=O)N[C@H]1CCCCNC(=S)SC[C@@H](C(=O)N[C@@H](CC(C)C)C(=O)N[C@@H](CC(C)C)C(=O)N[C@@H](CO)C(=O)N[C@@H](CCCNC(=N)N)C(N)=O)NC(=O)[C@H](Cc2c[nH]c3ccccc23)NC(=O)[C@H](Cc2ccc(O)cc2)NC(=O)[C@H](CCC(N)=O)NC1=O)[C@@H](C)O` [^DTCPMI], for which the “induction of p53, MDM2 and p21 (Western blotting)” value in data set [6] is “dose-dependent induction of p53, MDM2 and p21”. For the same compound, the “cell viability of HCT116 p53-/- cells at high concentration” value in data set [2] (100 μM) is on record as “significantly reduced cell viability”. For the same compound, the “induction of apoptosis of HCT116 p53+/+ cells (FACS)” value in data set [7] was “dose-dependent induction of apoptosis”. Moreover, the “α-helix (%)” value in data set [3] (Table 3) was determined as 76%; in data set [3] (Table 7), 62.2%. The “apoptosis of HCT116 p53-/- cells (FACS)” value in data set [8] is “no obvious apoptosis”. Further, the “intracellular localization / cellular uptake (confocal microscopy)” value in data set [4] is “diffused intracellular localization, demonstrating efficient cellular uptake”.
